Tests used:
[1] = target: T1, GABA-A receptor; anion channel (Rattus norvegicus) (UniProt O09028+P15431+P18506+P18508+P19969+P20236+P23574+P23576+P28471+P28473+P30191+P62813+P63079+P63138+Q91ZM7+Q9ES14); assay: In vitro displacement of [35S]TBPS from Gamma-aminobutyric acid A receptor of rat brain membrane preparations at 10 uM
[2] = target: T1, GABA-A receptor; anion channel (Rattus norvegicus); assay: In vitro displacement of [35S]TBPS from Gamma-aminobutyric acid A receptor of rat brain membrane preparations at 100 uM
[3] = target: T1, GABA-A receptor; anion channel (Rattus norvegicus); assay: Displacement of [3H]flunitrazepam from GABA-A receptor of rat brain membrane preparations at 10 uM
[4] = target: T1, GABA-A receptor; anion channel (Rattus norvegicus); assay: Displacement of [3H]flunitrazepam from GABA-A receptor of rat brain membrane preparations at 100 uM
[5] = target: T1, GABA-A receptor; anion channel (Rattus norvegicus); assay: In vitro displacement of [3H]muscimol from Gamma-aminobutyric acid A receptor of rat brain membrane preparations at 100 uM
[6] = target: T2, GABA-A receptor; alpha-1/beta-2/gamma-2 (Rattus norvegicus) (UniProt P18508+P62813+P63138); assay: (§1) Percent GABA current elicited in Xenopus laevis oocytes expressing rat GABA-A alpha-1-beta-2-gamma-2 subunits at 100 uM [(-)inhibition, (+)stimulation]; type: functional, cell-based; conditions: Oocyte
[7] = target: GABA-A receptor; anion channel; assay: Displacement of [3H]flunitrazepam from GABA-A receptor of rat cerebellar tissue; type: protein-complex assay
[8] = target: GABA-A receptor; anion channel; assay: Displacement of [3H]flunitrazepam from GABA-A receptor of rat forebrain tissue
[9] = target: T1, GABA-A receptor; anion channel (Rattus norvegicus); assay: Displacement of [3H]flunitrazepam from GABA-A receptor of rat brain membrane preparations at 100uM, Limited solubility
[10] = target: T1, GABA-A receptor; anion channel (Rattus norvegicus); assay: In vitro displacement of [3H]muscimol from Gamma-aminobutyric acid A receptor of rat brain membrane preparations at 10 uM
[11] = target: T1, GABA-A receptor; anion channel (Rattus norvegicus); assay: In vitro displacement of [3H]-muscimol from Gamma-aminobutyric acid A receptor of rat brain membrane preparations at 100 uM (Limited solubility)
[12] = target: T1, GABA-A receptor; anion channel (Rattus norvegicus); conditions: Brain, Membrane, 10 nM
Description: Displacement of [3H]flunitrazepam from GABA-A receptor of rat brain membrane preparations at 10 nM

[13] = target: T2, GABA-A receptor; alpha-1/beta-2/gamma-2 (Rattus norvegicus); conditions: Oocyte, 1 uM
Description: Percent GABA current elicited in Xenopus laevis oocytes expressing rat GABA-A alpha-1-beta-2-gamma-2 subunits at 1 uM [(-)inhibition, (+)stimulation]

[14] = as §1; type: functional, Oocyte
[15] = target: T1, GABA-A receptor; anion channel (Rattus norvegicus); assay: In vitro displacement of [35S]TBPS from Gamma-aminobutyric acid A receptor of rat brain membrane preparations at 100 uM (Limited solubility)
[16] = target: T2, GABA-A receptor; alpha-1/beta-2/gamma-2 (Rattus norvegicus); assay: Percent GABA current elicited in Xenopus laevis oocytes expressing rat GABA-A alpha-1-beta-2-gamma-2 subunits at 50 uM [(-)inhibition, (+)stimulation]; type: functional, cell-based; conditions: Oocyte
[17] = target: T2, GABA-A receptor; alpha-1/beta-2/gamma-2 (Rattus norvegicus); assay: Percent GABA current elicited in Xenopus laevis oocytes expressing rat GABA-A alpha-1-beta-2-gamma-2 subunits at 10 uM [(-)inhibition, (+)stimulation]; type: functional, cell-based; conditions: Oocyte

| Compound | Displacement [1] [%] | Displacement [2] [%] | Displacement [3] [%] | Displacement [4] [%] | Displacement [5] [%] | GABA current [6] [%] | Displacement [10] [%] | also measured |
| --- | --- | --- | --- | --- | --- | --- | --- | --- |
| CC1=C[C@H]([C@@H]2c3cc4c(cc3CCN2C)OCO4)OC1=O | 1 | 3 | 6 | 30 | 5 | -7 |  |  |
| CC1=C[C@H]([C@@H]2c3ccccc3CCN2C(=O)OCc2ccccc2)OC1=O | 20 |  | 27 |  |  | 208 | -4 | IC50 [7]: 17 µM; IC50 [8]: 25 µM; Displacement [9]: Insoluble; Displacement [11]: Insoluble |
| COc1cc2c(cc1OC)[C@@H]([C@@H]1C=CC(=O)O1)N(C(=O)OCc1ccccc1)CC2 | 5 | 47 | 5 | 15 | -1 | 20 |  |  |
| COc1cc2c(cc1OC)[C@@H]([C@H]1C=CC(=O)O1)N(C(=O)OCc1ccccc1)CC2 | 5 | 50 | 15 | 51 | 10 | 43 | 7 |  |
| CN1C(=O)CN=C(c2ccccc2)c2cc(Cl)ccc21 | 25 |  |  |  | -13 |  |  | Displacement [12]: 33%; GABA current [13]: 300% |
| COc1cc2c(cc1OC)[C@@H]([C@H]1C=C(C)C(=O)O1)N(C)CC2 |  | 4 |  | 12 | -1 | -10 |  |  |
| CC1=C[C@@H]([C@@H]2c3cc4c(cc3CCN2C)OCO4)OC1=O |  | 3 |  | 21 | 3 |  |  | GABA current [14]: -3% |
| O=C1C=C[C@@H]([C@@H]2c3ccccc3CCN2C(=O)OCc2ccccc2)O1 | 14 | 82 | 93 |  | -13 | 281 | -12 |  |
| CC1=C[C@@H]([C@@H]2c3ccccc3CCN2C(=O)OCc2ccccc2)OC1=O | 16 |  | 43 |  |  | 130 | -7 | IC50 [7]: 7 µM; IC50 [8]: 12 µM; Displacement [11]: Insoluble |
| CN1CCc2cc3c(cc2[C@H]1[C@@H]1OC(=O)c2c1ccc1c2OCO1)OCO3 |  | -1 |  | 7 |  | -100 | 45 |  |
| O=C1C=C[C@@H]([C@@H]2c3cc4c(cc3CCN2C(=O)OCc2ccccc2)OCO4)O1 | 19 |  | 20 |  |  |  | -5 | Displacement [15]: Insoluble; Displacement [11]: Insoluble; GABA current [16]: 215% |
| COc1cc2c(cc1OC)[C@@H]([C@@H]1C=C(C)C(=O)O1)N(C)CC2 |  | 2 |  | 8 | 4 | -8 |  |  |
| O=C1CC[C@@H]([C@@H]2c3ccccc3CCN2C(=O)OCc2ccccc2)O1 | 11 | 82 | 96 |  | -2 | 351 | -18 | IC50 [7]: 0.06 µM; IC50 [8]: 0.16 µM; GABA current [17]: 111% |
| COc1cc2c(cc1OC)[C@@H]([C@@H]1C=C(C)C(=O)O1)N(C(=O)OCc1ccccc1)CC2 |  | 11 |  | 4 | -1 | 24 |  |  |
| O=C1C=C[C@H]([C@@H]2c3cc4c(cc3CCN2C(=O)OCc2ccccc2)OCO4)O1 | 18 |  | 27 |  |  |  | -7 | Displacement [15]: Insoluble; Displacement [11]: Insoluble; GABA current [16]: 128% |
| O=C1C=C[C@H]([C@@H]2c3ccccc3CCN2C(=O)OCc2ccccc2)O1 | 18 | 85 | 51 |  | -2 | 225 | -9 |  |
| COc1cc2c(cc1OC)[C@@H]([C@H]1C=C(C)C(=O)O1)N(C(=O)OCc1ccccc1)CC2 |  | 63 |  | 31 | -23 | 60 |  |  |
